Assay results taken from PubChem BioAssay (NCI).
Where “and” joins values, the source holds several entries; their conditions need not be identical. Identical values can stand only once.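 Cells were grown in 96-well plates and exposed to each compound for 48 hours at five concentrations; endpoints were interpolated linearly between bracketing concentrations, or set to the highest concentration if not reached. Abbreviation: GI50, concentration required for 50% inhibition of growth. TGI marks complete inhibition of growth.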

What was measured:
Assay in all cases: NCI-60 cell line screen, 48 h
[1] = tested on: CCRF-CEM leukemia
[2] = tested on: HCT-116 colon
[3] = tested on: IGROV1 ovarian
[4] = tested on: K-562 leukemia
[5] = tested on: MOLT-4 leukemia
[6] = tested on: NCI-H23 lung
[7] = tested on: OVCAR-5 ovarian
[8] = tested on: RPMI-8226 leukemia
[9] = tested on: SK-MEL-2 melanoma
[10] = tested on: SNB-75 CNS

In the case of `Cc1nc(/N=C(\N)NC(=O)Nc2ccccc2Cl)sc1C`, the GI50 [1] is reported as 0.352 µM, the TGI [1] is reported as greater than 53.2 µM and the GI50 [2] is reported as 0.402 µM. It also gave a GI50 [3] of 0.528 µM, a TGI [3] greater than 100 µM and a GI50 [4] of 0.0861 µM. For the same compound, the TGI [4] was greater than 100 µM, the GI50 [5] was 0.492 µM and the TGI [5] was greater than 100 µM. For the same compound, the GI50 [6] was 0.687 µM, the TGI [6] was greater than 74.9 µM and the GI50 [7] was 1.32 µM. For the same compound, the TGI [7] was greater than 100 µM, the GI50 [8] was 0.406 µM and the TGI [8] was 7.65 µM. The GI50 [9] was 0.571 µM, the TGI [9] was 16.4 µM and the GI50 [10] was 0.226 µM. For the same compound, the TGI [10] was 0.91 µM.

`O=C1/C(=C\c2coc3ccccc3c2=O)c2ccccc2N1c1c(Cl)cccc1Cl` showed a GI50 [1] of 2.08 µM, a TGI [1] greater than 100 µM and a GI50 [2] of 2.01 µM. For the same compound, the TGI [2] was 14.5 µM, the GI50 [3] was 1.62 µM and the TGI [3] was 5.91 µM. It also gave a GI50 [4] of 2.08 µM, a TGI [4] greater than 100 µM and a GI50 [5] of 2.98 µM. The TGI [5] was greater than 100 µM, the GI50 [6] was 4.45 µM and the TGI [6] was greater than 100 µM. It also gave a GI50 [7] of 20.9 µM, a TGI [7] greater than 100 µM and a GI50 [8] of 1.25 µM. The TGI [8] was 3.95 µM, the GI50 [9] was 2.75 µM and the TGI [9] was 6.04 µM. The GI50 [10] was 1.91 µM and the TGI [10] was 37.4 µM.

With `COc1cc([C@@H]2c3cc4c(cc3[C@H](O)[C@H]3COC(=O)[C@H]23)OCO4)cc(OC)c1OC` the GI50 [1] was less than 0.01 µM, the GI50 [2] was less than 0.01 µM and the TGI [2] was 0.5 µM. The GI50 [3] was less than 0.005 µM, the GI50 [4] was less than 0.01 µM and the TGI [4] was > 100 µM and 50 µM. The GI50 [5] was less than 0.01 µM, the GI50 [6] was less than 0.01 µM and the TGI [6] was > 100 µM and 50 µM and > 7.43 µM. For the same compound, the TGI [7] was > 100 µM and 46.3 µM, the GI50 [8] was less than 0.01 µM and the GI50 [9] was less than 0.005 µM. It also gave a GI50 [10] of less than 0.005 µM.

Work on `Cc1cc(-c2nc(-c3ccc(OC(F)(F)F)cc3)no2)nn1Cc1ccnc(N2CCN(C3CC3)CC2)c1` yielded a GI50 [1] of 7.09 µM, a TGI [1] greater than 100 µM and a GI50 [2] of less than 0.01 µM. For the same compound, the TGI [2] was greater than 100 µM, the GI50 [3] was greater than 50 µM and the TGI [3] was greater than 100 µM. It also gave a GI50 [4] of less than 0.01 µM, a TGI [4] greater than 100 µM and a GI50 [5] of 3.73 µM. It also gave a TGI [5] of 84.8 µM, a GI50 [6] of less than 0.01 µM and a TGI [6] greater than 86.3 µM. For the same compound, the GI50 [7] was greater than 37.5 µM, the TGI [7] was greater than 100 µM and the GI50 [8] was 0.582 µM. It also gave a TGI [8] greater than 58.3 µM, a GI50 [9] greater than 42.1 µM and a TGI [9] greater than 100 µM. It also gave a GI50 [10] greater than 59.6 µM and a TGI [10] greater than 100 µM.

Work on `O=C(Nc1ccccc1Br)c1cccc([N+](=O)[O-])c1O` yielded a TGI [1] greater than 40.3 µM, a TGI [2] of 14.8 µM and a TGI [3] greater than 59.7 µM. For the same compound, the TGI [4] was greater than 100 µM, the TGI [5] was 10.4 µM and the TGI [6] was 6.31 µM. For the same compound, the TGI [7] was greater than 94 µM, the TGI [8] was 6.27 µM and the TGI [9] was 52.7 µM. For the same compound, the TGI [10] was 53.1 µM.

In the case of `COc1cccc(C2C3=C(COC3=O)N(CCO)c3cc4c(cc32)OCCO4)c1` (stereo unspecified), the GI50 [1] is reported as 0.151 µM, the TGI [1] is reported as greater than 50 µM and the GI50 [2] is reported as 0.152 µM. It also gave a TGI [2] of 3.16 µM, a GI50 [3] of 0.0959 µM and a TGI [3] of 0.906 µM. It also gave a GI50 [4] of 0.0827 µM, a TGI [4] greater than 50 µM and a GI50 [5] of 0.195 µM. It also gave a GI50 [6] of 0.15 µM, a TGI [6] greater than 50 µM and a GI50 [7] of 0.427 µM. It also gave a TGI [7] greater than 50 µM, a GI50 [8] of 0.0564 µM and a GI50 [9] of 0.0396 µM. It also gave a TGI [9] of 0.219 µM, a GI50 [10] of 0.0722 µM and a TGI [10] of 0.424 µM.

`CC[O-].Cc1ccc2cccc([O-])c2n1.Cc1ccc2cccc([O-])c2n1.Cc1ccc2cccc([O-])c2n1.[Ti+4]` was tested, and the GI50 [1] was 6.97 µM, the TGI [1] was 38.8 µM and the GI50 [2] was 33.8 µM. For the same compound, the TGI [2] was greater than 100 µM, the GI50 [3] was 43.2 µM and the TGI [3] was greater than 100 µM. It also gave a GI50 [4] of 11.7 µM, a TGI [4] of 52.2 µM and a GI50 [5] of 6.07 µM. The TGI [5] was 35.8 µM, the GI50 [6] was greater than 63.5 µM and the TGI [6] was greater than 100 µM. It also gave a GI50 [7] greater than 65 µM, a TGI [7] greater than 100 µM and a GI50 [8] of 11.5 µM. The TGI [8] was 49.5 µM, the GI50 [9] was 22.9 µM and the TGI [9] was greater than 57.5 µM. The GI50 [10] was 63.8 µM and the TGI [10] was greater than 100 µM.

In the case of `N#CC(C#N)=CSc1ccccc1`, the TGI [1] is reported as greater than 100 µM, the TGI [2] is reported as 76.3 µM and the TGI [3] is reported as 35.7 µM. It also gave a TGI [4] greater than 100 µM, a TGI [5] greater than 100 µM and a TGI [6] greater than 100 µM. For the same compound, the TGI [7] was 68.9 µM, the TGI [8] was greater than 100 µM and the TGI [9] was 72.3 µM. It also gave a TGI [10] of 74.8 µM.

In the case of `C#COc1cccc(Nc2ncnc3ncc(NC(=O)CCl)cc23)c1`, the TGI [1] is reported as greater than 62.5 µM, the GI50 [2] is reported as 0.239 µM and the TGI [2] is reported as greater than 62.5 µM. It also gave a TGI [3] greater than 26.1 µM, a TGI [4] greater than 62.5 µM and a TGI [5] greater than 62.5 µM. It also gave a GI50 [6] greater than 62.5 µM, a TGI [6] greater than 62.5 µM and a GI50 [7] greater than 47.4 µM. For the same compound, the TGI [7] was greater than 62.5 µM, the GI50 [8] was greater than 19.8 µM and the TGI [8] was greater than 62.5 µM. It also gave a GI50 [9] greater than 57.7 µM, a TGI [9] greater than 62.5 µM and a GI50 [10] greater than 60.1 µM. It also gave a TGI [10] greater than 62.5 µM.

In the case of `COc1cc2c3c(n(C)c(=O)c2cc1OC)-c1cc2c(cc1/C3=C\CCCBr)OCO2`, the GI50 [1] is reported as 14.3 µM, the TGI [1] is reported as 50.3 µM and the GI50 [2] is reported as 27.2 µM. It also gave a TGI [2] greater than 60.8 µM, a GI50 [3] of 28.5 µM and a TGI [3] greater than 100 µM. For the same compound, the GI50 [4] was 58.3 µM, the TGI [4] was greater than 100 µM and the GI50 [5] was 21.4 µM. It also gave a TGI [5] greater than 66.2 µM, a GI50 [6] of 19.6 µM and a TGI [6] of 49.6 µM. It also gave a GI50 [7] of 19.3 µM, a TGI [7] greater than 70.6 µM and a GI50 [8] of 29.1 µM. For the same compound, the TGI [8] was greater than 100 µM, the GI50 [9] was 21.3 µM and the TGI [9] was 69.4 µM. The GI50 [10] was 0.398 µM and the TGI [10] was 12.8 µM.

`CC(=O)OCC1OC(OC2=C(CC=C(Cl)Cl)C(=O)c3ccccc3C2=O)C(OC(C)=O)C(OC(C)=O)C1OC(C)=O` (stereo unspecified) showed a GI50 [1] of 0.894 µM, a TGI [1] greater than 100 µM and a GI50 [2] of 1.74 µM. The TGI [2] was 3.92 µM, the GI50 [3] was 0.869 µM and the TGI [3] was 3.11 µM. For the same compound, the GI50 [4] was 1.06 µM, the TGI [4] was greater than 100 µM and the GI50 [5] was 1.43 µM. The TGI [5] was 9.89 µM, the GI50 [6] was 13.2 µM and the TGI [6] was 36.8 µM. The GI50 [7] was 11.8 µM, the TGI [7] was 28.6 µM and the GI50 [8] was 2.05 µM. The TGI [8] was 6.78 µM, the GI50 [9] was 3.33 µM and the TGI [9] was 9.25 µM. The GI50 [10] was 2.68 µM and the TGI [10] was 19.9 µM.

`O=C(NNC(=O)c1ccncc1)c1ccncc1` gave a TGI [1] greater than 100 µM, a TGI [2] greater than 100 µM and a TGI [3] greater than 100 µM. For the same compound, the TGI [4] was greater than 100 µM, the TGI [5] was greater than 100 µM and the TGI [6] was greater than 100 µM. For the same compound, the TGI [7] was greater than 100 µM, the TGI [8] was greater than 100 µM and the TGI [9] was greater than 100 µM. The TGI [10] was greater than 100 µM.

With `O=S1(=O)CS(=O)(=O)OCCCO1` the TGI [1] was greater than 100 µM, the TGI [2] was greater than 100 µM and the TGI [3] was greater than 100 µM. For the same compound, the TGI [4] was greater than 100 µM, the TGI [5] was greater than 100 µM and the TGI [6] was greater than 100 µM. For the same compound, the TGI [7] was greater than 100 µM, the TGI [8] was greater than 100 µM and the TGI [9] was greater than 100 µM. The TGI [10] was greater than 100 µM.

For `COc1ccc(Cc2cnc(NC(=O)c3sc4ccccc4c3Cl)s2)cc1`, the GI50 [1] was 0.402 µM, the TGI [1] was greater than 100 µM and the GI50 [2] was 0.408 µM. The TGI [2] was greater than 100 µM, the GI50 [3] was 0.608 µM and the TGI [3] was greater than 100 µM. It also gave a GI50 [4] of 0.289 µM, a TGI [4] greater than 100 µM and a GI50 [5] of 0.484 µM. The TGI [5] was greater than 100 µM, the GI50 [6] was 0.647 µM and the TGI [6] was greater than 100 µM. The GI50 [7] was 0.587 µM, the TGI [7] was greater than 100 µM and the GI50 [8] was 0.435 µM. For the same compound, the TGI [8] was greater than 42.7 µM, the GI50 [9] was 0.703 µM and the TGI [9] was greater than 100 µM. For the same compound, the GI50 [10] was 0.2 µM and the TGI [10] was greater than 100 µM.
